In ChEMBL document CHEMBL3885861, “Open TG-GATES”:

Species on record: Rattus norvegicus
Experiment: Open TG-GATES - Regimen: Daily Repeat
Format: toxicity, organism-based, Sprague-Dawley
Parameters: regimen Daily Repeat, gender Male, age 6 weeks
Settings: in vivo, po, 100 mg/kg, […], route gavage, dose level High; for KIDNEY_TOTAL: tissue Kidney; for LIVER: tissue Liver; for A/G / ALP / ALT / AST / BUN / CRE / Ca / Cl / DBIL / GLC / IP / K / LDH / Na / PL / RALB / TBIL / TC / TG / TP / gamma-GTP: tissue Plasma

Work on `CN(CCOc1ccc(CC2SC(=O)NC2=O)cc1)c1ccccn1.O=C(O)/C=C\C(=O)O` (configuration not stated) [ROSIGLITAZONE MALEATE] yielded a Hb (tissue Blood, time 28 day) of 12.9 g/dL, a Ht (tissue Blood, time 28 day) of 39.5% and a Lym (tissue Blood, time 28 day) of 77.4%. The MCH (tissue Blood, time 28 day) was 19.6 pg, the MCHC (tissue Blood, time 28 day) was 32.6% and the MCV (tissue Blood, time 28 day) was 60.2 fL. It also gave a Mono (tissue Blood, time 28 day) of 7.8%, a Neu (tissue Blood, time 28 day) of 13.4% and a PT (tissue Blood, time 28 day) of 12.1 s. The Plat (tissue Blood, time 28 day) was 87.6 x10_4/uL, the RBC (tissue Blood, time 28 day) was 657.8 x10_4/ul and the Ret (tissue Blood, time 28 day) was 3.2%. For the same compound, the WBC (tissue Blood, time 28 day) was 104 x10_2/uL, the KIDNEY_TOTAL (time 7 day) was 0.8 g and the KIDNEY_TOTAL (time 14 day) was 0.9 g. For the same compound, the KIDNEY_TOTAL (time 28 day) was 0.9 g, the LIVER (time 7 day) was 14.7 g and the LIVER (time 14 day) was 16.3 g. It also gave an LIVER (time 28 day) of 18.6 g, an A/G (time 7 day) of 2.3 and an ALP (time 7 day) of 1176 IU/L. The ALT (time 7 day) was 33 IU/L, the AST (time 7 day) was 67.6 IU/L and the BUN (time 7 day) was 20.8 mg/dL. The CRE (time 7 day) was 0.5 mg/dL, the Ca (time 7 day) was 11 mg/dL and the Cl (time 7 day) was 105.6 meq/L. For the same compound, the DBIL (time 7 day) was 0.014 mg/dL, the GLC (time 7 day) was 178.8 mg/dL and the IP (time 7 day) was 7.5 mg/dL. The K (time 7 day) was 4 meq/L, the LDH (time 7 day) was 77 IU/L and the Na (time 7 day) was 142 meq/L. The PL (time 7 day) was 135.4 mg/dL, the RALB (time 7 day) was 3.8 g/dL and the TBIL (time 7 day) was 0.034 mg/dL. It also gave a TC (time 7 day) of 73.8 mg/dL, a TG (time 7 day) of 43.4 mg/dL and a TP (time 7 day) of 5.4 g/dL. It also gave a gamma-GTP (time 7 day) of 0.4 IU/L, an A/G (time 14 day) of 2 and an ALP (time 14 day) of 1156 IU/L. It also gave an ALT (time 14 day) of 36 IU/L, an AST (time 14 day) of 68.2 IU/L and a BUN (time 14 day) of 18.2 mg/dL. It also gave a CRE (time 14 day) of 0.4 mg/dL, a Ca (time 14 day) of 11 mg/dL and a Cl (time 14 day) of 107.6 meq/L. It also gave a DBIL (time 14 day) of 0.01 mg/dL, a GLC (time 14 day) of 190.4 mg/dL and an IP (time 14 day) of 7.4 mg/dL. For the same compound, the K (time 14 day) was 3.8 meq/L, the LDH (time 14 day) was 87.2 IU/L and the Na (time 14 day) was 145.8 meq/L. The PL (time 14 day) was 120 mg/dL, the RALB (time 14 day) was 3.7 g/dL and the TBIL (time 14 day) was 0.028 mg/dL. The TC (time 14 day) was 69.4 mg/dL, the TG (time 14 day) was 38.8 mg/dL and the TP (time 14 day) was 5.5 g/dL. For the same compound, the gamma-GTP (time 14 day) was 1 IU/L, the A/G (time 28 day) was 2.1 and the ALP (time 28 day) was 951 IU/L. The ALT (time 28 day) was 29 IU/L, the AST (time 28 day) was 59.2 IU/L and the BUN (time 28 day) was 18.6 mg/dL. The CRE (time 28 day) was 0.4 mg/dL, the Ca (time 28 day) was 11 mg/dL and the Cl (time 28 day) was 105 meq/L. It also gave a DBIL (time 28 day) of 0.01 mg/dL, a GLC (time 28 day) of 179.6 mg/dL and an IP (time 28 day) of 6.2 mg/dL. The K (time 28 day) was 3.9 meq/L, the LDH (time 28 day) was 88.4 IU/L and the Na (time 28 day) was 141.2 meq/L. It also gave a PL (time 28 day) of 123.2 mg/dL, an RALB (time 28 day) of 3.9 g/dL and a TBIL (time 28 day) of 0.04 mg/dL. The TC (time 28 day) was 74.8 mg/dL, the TG (time 28 day) was 37.8 mg/dL and the TP (time 28 day) was 5.8 g/dL. The gamma-GTP (time 28 day) was 0 IU/L.
